Patent publication US8574556B2, “Antibacterial pharmaceutical composition comprising Aceriphyllum rossii extract and active compounds isolated therefrom” (Korea Research Institute of Bioscience and Biotechnology, priority 2008, dated 2013)
≈ marks a conversion by molar mass, not a printed value. Where two headings read alike, the source gives them in different places.

Tests used:
Assay type in all cases: cell-based
[1] = test system: Staphylococcus aureus RN4220; assay: Broth microdilution MIC
Description: (§1) Test strains were cultured in a Mueller Hinton broth, and the antibacterial activities were determined by a broth microdilution assay. The test strains were grown to the mid-logarithmic phase, and diluted to a concentration of 10^5/ml with the same broth. 0.2 ml of the cells was added to each well of 96-well plates. The samples prepared in Examples 1 and 2 and Comparative Example 1 were serially diluted 2-fold, and added to the plates. The cells were incubated at 30° C. for 18 hrs, and cell growth was measured at 650 nm.
(§2) The antibacterial activity of Aceriphyllum rossii extract was determined with respect to Staphylococcus aureus, and the antibacterial activities of aceriphyllic acid A and 3-oxo-12-oleanen-27-oic acid were determined with respect to 15 different types of strains. Triclosan, oxacillin, and norfloxacin, which are commercially available antibiotics, were used for comparison.

[2] = test system: Streptococcus mutans KCTC3289; assay: Broth microdilution MIC
Description: as §1, §2

[3] = test system: Staphylococcus aureus CCARM3167(MRSA); assay: Broth microdilution MIC
Description: as §1, §2

[4] = test system: Staphylococcus aureus CCARM3519(QRSA); assay: Broth microdilution MIC
Description: as §1, §2

[5] = test system: Staphylococcus aureus CCARM3506(MRSA); assay: Broth microdilution MIC
Description: as §1, §2

[6] = test system: Micrococcus luteus KCTC1056; assay: Broth microdilution MIC
Description: as §1, §2

[7] = test system: Streptococcus mutans KCTC5248; assay: Broth microdilution MIC
Description: as §1, §2

[8] = test system: Staphylococcus aureus CCARM3505(QRSA); assay: Broth microdilution MIC
Description: as §1, §2

[9] = test system: Staphylococcus aureus 503; assay: Broth microdilution MIC
Description: as §1, §2

[10] = test system: Staphylococcus aureus KCTC1916; assay: Broth microdilution MIC
Description: as §1, §2

[11] = test system: Acinetobacter calcoaceticus KCTC2357; assay: Broth microdilution MIC
Description: as §1, §2

[12] = test system: Enterococcus faecium KCTC3122; assay: Broth microdilution MIC
Description: as §1, §2

[13] = test system: Streptococcus pneumoniae KCTC3932; assay: Broth microdilution MIC
Description: as §1, §2

[14] = test system: Bacillus subtilis KCTC1021; assay: Broth microdilution MIC
Description: as §1, §2

[15] = test system: Streptococcus mutans KCTC3065; assay: Broth microdilution MIC
Description: as §1, §2

[16] = test system: cariogenic bacteria (Streptococcus mutans); assay: Broth microdilution MIC, for cariogenic bacteria; conditions: Streptococcus mutans (text summary of Table 2)
Description: as §1, §2

[17] = test system: Acinetobacter calcoaceticus, Micrococcus luteus, and Bacillus subtilis; assay: Broth microdilution MIC, text summary; conditions: range over Acinetobacter calcoaceticus, Micrococcus luteus and Bacillus subtilis (text summary of Table 2)
Description: as §1, §2

[18] = test system: Staphylococcus aureus, methicillin-resistant S. aureus, and quinolone-resistant S. aureus; assay: Broth microdilution MIC, summary over S. aureus strains; conditions: range over Staphylococcus aureus, MRSA and QRSA strains (text summary of Table 2)
Description: as §1, §2

[19] = test system: Propionibacterium acnes ATCC6919; assay: Broth microdilution MIC, anaerobic RCMI liquid media
Description: Propionibacterium acnes was cultured in RCMI liquid media under anaerobic conditions, and the antibacterial activities were determined by a broth microdilution assay. The test strain was pre-cultured in liquid media at 37° C. for 1 to 2 days. 15 μl of test material dissolved in DMSO was added to 3 ml of broth to a concentration of 32 ppm. The sample was serially diluted 2-fold to prepare seven samples with different concentrations. The samples were added to the pre-cultured broth to a microbial concentration of 10^5-6 cfu/ml, and cultured for 1-3 days, followed by measurement of cell growth.
as §2

[20] = Staphylococcus aureus CCARM3167(MRSA), read-out: MIC
[21] = Staphylococcus aureus CCARM3519(QRSA), read-out: MIC
[22] = Staphylococcus aureus CCARM3506(MRSA), read-out: MIC
[23] = Staphylococcus aureus CCARM3505(QRSA), read-out: MIC
[24] = Cutibacterium acnes, ATCC6919, Propionibacterium acnes (text summary of Table 2), read-out: MIC
[25] = Propionibacterium acnes ATCC6919

| Structure (SMILES) | MIC [1] | MIC ([2]; read-out: MIC) | MIC [3, 20] | MIC [4, 21] | MIC [5, 22] | MIC ([6]; read-out: MIC) | MIC ([7]; read-out: MIC) | MIC [8, 23] | MIC ([9]; read-out: MIC) | MIC ([10]; read-out: MIC) | MIC ([11]; read-out: MIC) | MIC ([12]; read-out: MIC) | MIC ([13]; read-out: MIC) | MIC ([14]; read-out: MIC) | MIC ([15]; read-out: MIC) | MIC [16] | MIC [17] | MIC [18] | MIC [19, 24] | MIC [19, 25] | other results |
| --- | --- | --- | --- | --- | --- | --- | --- | --- | --- | --- | --- | --- | --- | --- | --- | --- | --- | --- | --- | --- | --- |
| Cc1onc(-c2ccccc2)c1C(=O)N[C@@H]1C(=O)N2[C@@H]1SC(C)(C)[C@@H]2C(=O)O [Oxacillin] | 0.25 µg/mL (≈ 0.623 µM) | 0.06 µg/mL (≈ 0.149 µM) | 500 µg/mL (≈ 1250 µM) | 0.5 µg/mL (≈ 1.25 µM) | 500 µg/mL (≈ 1250 µM) | 8 µg/mL (≈ 19.9 µM) | 0.06 µg/mL (≈ 0.149 µM) | 0.5 µg/mL (≈ 1.25 µM) | 0.25 µg/mL (≈ 0.623 µM) | 0.25 µg/mL (≈ 0.623 µM) | 0.125 µg/mL (≈ 0.311 µM) | 2 µg/mL (≈ 4.98 µM) | 2 µg/mL (≈ 4.98 µM) | 0.25 µg/mL (≈ 0.623 µM) | 0.06 µg/mL (≈ 0.149 µM) | – | – | – | – | – | – |
| CC1(C)CC[C@]2(C)CC[C@@]3(C(=O)O)C(=CCC4[C@@]5(C)CCC(=O)C(C)(C)C5CC[C@]43C)C2C1 (stereo partly shown) [3-Oxo-12-oleanen-27-oic acid] | 4 µg/mL (≈ 8.8 µM) | 4 µg/mL (≈ 8.8 µM) | 4 µg/mL (≈ 8.8 µM) | 8 µg/mL (≈ 17.6 µM) | 8 µg/mL (≈ 17.6 µM) | 2 µg/mL (≈ 4.4 µM) | 4 µg/mL (≈ 8.8 µM) | 8 µg/mL (≈ 17.6 µM) | 2 µg/mL (≈ 4.4 µM) | 2 µg/mL (≈ 4.4 µM) | 2 µg/mL (≈ 4.4 µM) | > 64 µg/mL | 16 µg/mL (≈ 35.2 µM) | 2 µg/mL (≈ 4.4 µM) | 4 µg/mL (≈ 8.8 µM) | 4 µg/mL (≈ 8.8 µM) | 1 to 2 µg/mL (≈ 2.2 to 4.4 µM) | 2 to 8 µg/mL (≈ 4.4 to 17.6 µM) | 2 µg/mL (≈ 4.4 µM) | 2 µg/mL (≈ 4.4 µM) | – |
| CCn1cc(C(=O)O)c(=O)c2cc(F)c(N3CCNCC3)cc21 [Norfloxacin] | 1 µg/mL (≈ 3.13 µM) | 8 µg/mL (≈ 25.1 µM) | 8 µg/mL (≈ 25.1 µM) | 125 µg/mL (≈ 391 µM) | 1 µg/mL (≈ 3.13 µM) | 2 µg/mL (≈ 6.26 µM) | 8 µg/mL (≈ 25.1 µM) | 250 µg/mL (≈ 783 µM) | 1 µg/mL (≈ 3.13 µM) | 0.25 µg/mL (≈ 0.783 µM) | 0.25 µg/mL (≈ 0.783 µM) | 8 µg/mL (≈ 25.1 µM) | 2 µg/mL (≈ 6.26 µM) | 0.25 µg/mL (≈ 0.783 µM) | 8 µg/mL (≈ 25.1 µM) | – | – | – | – | – | – |
| CC1(C)CC[C@]2(C)CC[C@@]3(C(=O)O)C(=CCC4[C@@]5(C)CC[C@@H](O)[C@@](C)(CO)C5CC[C@]43C)C2C1 (stereo partly shown) [Aceriphyllic acid A, Aceriphyllic Acid A] | 4 µg/mL (≈ 8.46 µM) | 4 µg/mL (≈ 8.46 µM) | 4 µg/mL (≈ 8.46 µM) | 4 µg/mL (≈ 8.46 µM) | 4 µg/mL (≈ 8.46 µM) | 2 µg/mL (≈ 4.23 µM) | 2 µg/mL (≈ 4.23 µM) | 4 µg/mL (≈ 8.46 µM) | 2 µg/mL (≈ 4.23 µM) | 4 µg/mL (≈ 8.46 µM) | 2 µg/mL (≈ 4.23 µM) | 8 µg/mL (≈ 16.9 µM) | 32 µg/mL (≈ 67.7 µM) | 1 µg/mL (≈ 2.12 µM) | 2 µg/mL (≈ 4.23 µM) | 2 to 4 µg/mL (≈ 4.23 to 8.46 µM) | 1 to 2 µg/mL (≈ 2.12 to 4.23 µM) | 2 to 4 µg/mL (≈ 4.23 to 8.46 µM) | 2 µg/mL (≈ 4.23 µM) | 2 µg/mL (≈ 4.23 µM) | – |
| Oc1cc(Cl)ccc1Oc1ccc(Cl)cc1Cl [Triclosan] | 0.006 µg/mL (≈ 0.0207 µM) | – | – | – | – | – | – | – | – | – | – | – | – | – | – | – | – | – | – | – | MIC [2]: 1 µg/mL (≈ 3.45 µM); MIC ([3]; Staphylococcus aureus): 0.006 µg/mL (≈ 0.0207 µM); MIC ([4]; Staphylococcus aureus, CCARM3519): 0.006 µg/mL (≈ 0.0207 µM); MIC ([5]; Staphylococcus aureus): 0.006 µg/mL (≈ 0.0207 µM); MIC [6]: 1 µg/mL (≈ 3.45 µM); MIC [7]: 1 µg/mL (≈ 3.45 µM); MIC ([8]; Staphylococcus aureus, CCARM3505): 0.006 µg/mL (≈ 0.0207 µM); MIC [9]: 0.006 µg/mL (≈ 0.0207 µM); MIC [10]: 0.006 µg/mL (≈ 0.0207 µM); MIC [11]: 0.003 µg/mL (≈ 0.0104 µM); MIC [12]: 4 µg/mL (≈ 13.8 µM); MIC [13]: 32 µg/mL (≈ 111 µM); MIC [14]: 0.003 µg/mL (≈ 0.0104 µM); MIC [15]: 1 µg/mL (≈ 3.45 µM) |
